Experiment [1] concerns the target Human Norepinephrine Transporter (hNET) (Homo sapiens, UniProt P23975). Description: Human Norepinephrine Transporter (hNET) Scintillation Proximity Assay (SPA), competition with [3H]-Nisoxetine. The conditions noted are these: membranes of HEK-293 cells expressing recombinant hNET, Ki by Cheng-Prusoff; for Ki: pKi NET. (In general: SPA uses beads or plates that emit light when radiolabelled molecules are held near them.)

Experiment [2] deals with T1, Human Serotonin Transporter (hSERT) (Homo sapiens, UniProt P31645).
T1 construct: expressed in transfected cells; membranes prepared from them
T1 sequence (P31645 whole entry): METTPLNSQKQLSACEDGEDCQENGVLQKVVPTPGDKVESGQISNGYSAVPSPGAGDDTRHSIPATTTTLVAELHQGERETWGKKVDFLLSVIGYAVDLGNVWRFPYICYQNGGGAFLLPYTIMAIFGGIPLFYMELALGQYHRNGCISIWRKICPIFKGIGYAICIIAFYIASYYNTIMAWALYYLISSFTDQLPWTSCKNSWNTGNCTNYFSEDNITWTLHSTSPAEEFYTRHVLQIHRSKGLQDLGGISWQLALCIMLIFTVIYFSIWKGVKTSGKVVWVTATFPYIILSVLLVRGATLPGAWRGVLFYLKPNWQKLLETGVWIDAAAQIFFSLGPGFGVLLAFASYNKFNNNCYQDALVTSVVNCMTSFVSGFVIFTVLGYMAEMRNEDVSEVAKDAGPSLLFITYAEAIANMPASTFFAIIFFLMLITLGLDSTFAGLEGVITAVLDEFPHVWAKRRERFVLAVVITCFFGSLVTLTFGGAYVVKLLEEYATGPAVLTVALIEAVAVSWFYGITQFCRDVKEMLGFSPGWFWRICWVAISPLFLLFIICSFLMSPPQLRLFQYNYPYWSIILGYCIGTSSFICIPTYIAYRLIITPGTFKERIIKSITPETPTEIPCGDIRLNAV
The experiment is described as follows: Human Serotonin Transporter (hSERT) Scintillation Proximity Assay (SPA), competition with [3H]-Citalopram. Format: binding. The note with it: membranes of HEK-293 cells expressing recombinant hSERT, Ki by Cheng-Prusoff; for Ki: read-out: pKi SERT (converted).
Source text: Screening for Human Serotonin Transporter (hSERT) Antagonists Using a Scintillation Proximity Assay (SPA)
Scintillation Proximity Assay (SPA) works by bringing radioligand within close proximity to the bead's scintillant to stimulate light emission. […] Unbound radioligand produced no signal as a result of distant proximity to scintillant (lack of energy transfer).

Human Norepinephrine Transporter (hNET), sequence (P23975 whole entry): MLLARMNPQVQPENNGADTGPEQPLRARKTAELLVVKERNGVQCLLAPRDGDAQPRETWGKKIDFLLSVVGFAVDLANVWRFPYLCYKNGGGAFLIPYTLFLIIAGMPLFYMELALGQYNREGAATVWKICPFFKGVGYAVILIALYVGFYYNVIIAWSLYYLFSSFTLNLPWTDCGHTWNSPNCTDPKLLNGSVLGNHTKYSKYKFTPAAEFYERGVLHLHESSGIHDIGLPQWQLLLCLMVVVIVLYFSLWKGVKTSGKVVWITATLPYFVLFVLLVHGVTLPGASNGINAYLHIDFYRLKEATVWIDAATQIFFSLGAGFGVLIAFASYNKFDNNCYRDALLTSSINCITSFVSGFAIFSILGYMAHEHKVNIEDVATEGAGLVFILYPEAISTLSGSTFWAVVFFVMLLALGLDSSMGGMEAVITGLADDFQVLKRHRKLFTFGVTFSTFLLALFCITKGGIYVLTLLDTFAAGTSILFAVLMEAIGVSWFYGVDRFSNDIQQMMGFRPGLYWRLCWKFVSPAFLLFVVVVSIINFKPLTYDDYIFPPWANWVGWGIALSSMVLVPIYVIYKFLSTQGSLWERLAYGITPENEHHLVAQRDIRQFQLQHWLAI

Regarding `CNCCC(c1cccc(F)c1)c1cc(Cl)c2[nH]ccc2c1` (stereo not drawn) [Compound 108], the values for the Ki in experiment [1] and in experiment [2] were 2.88 nM and 12.9 nM, respectively.
On the same counts, the results for `CN(C)CCC(c1ccccc1)c1ccc2[nH]ccc2c1` (stereo not drawn) [Compound 113, [3-(1H-Indol-5-yl)-3-phenyl-propyl]-dimethyl-amine] are 83.2 nM and 178 nM.
In the same order, the values of `CNCCC(c1ccc2c(c1)OCCN2C)c1ccc2[nH]ccc2c1` (stereo not drawn) [Compound 114, [3-(1H-Indol-5-yl)-3-(4-methyl-3,4-dihydro-2H-benzo[1,4]oxazin-7-yl)-propyl]-methyl-amine] are 87.1 nM and 77.6 nM.
Consider `CNCCC(c1ccc2[nH]ccc2c1)c1cccc2ccccc12` (stereo not drawn) [Compound 115, [3-(1H-Indol-5-yl)-3-naphthalen-1-yl-propyl]-methyl-amine], for which the figures for the Ki in experiment [1] and in experiment [2] were 43.7 nM and 8.13 nM, respectively.
With `CNCCC(c1ccc2[nH]ccc2c1)c1ccc2sccc2c1` (stereo not drawn) [Compound 116, [3-Benzo[b]thiophen-5-yl-3-(1H-indol-5-yl)-propyl]-methyl-amine], the Ki in experiment [1] was 5.01 nM; in experiment [2] it was 1.74 nM.
For the compound `CNCCC(c1ccc2[nH]ccc2c1)c1ccc2cc[nH]c2c1` (stereo not drawn) [Compound 117, [3-(1H-Indol-6-yl)-3-(1H-indol-5-yl)-propyl]-methyl-amine], the Ki in experiment [1] is 5.89 nM; in experiment [2], 8.91 nM.
In the same order, the values of `NCCC(c1ccc2[nH]ccc2c1)c1ccc2[nH]ccc2c1` [Compound 119, 3,3-Bis-(1H-indol-5-yl)-propylamine] are 11.5 nM and 72.4 nM.
With `NCCC(c1ccc2ncccc2c1)c1ccc2[nH]ccc2c1` (stereo not drawn) [Compound 120, 3-(1H-Indol-5-yl)-3-quinolin-6-yl-propylamine], the results for the Ki in experiment [1] and in experiment [2] were 141 nM and 3.24 nM, respectively.
Turning to `CNCCC(c1ccc2[nH]ccc2c1)c1cccc2cc[nH]c12` (stereo not drawn) [Compound 121, [3-(1H-Indol-7-yl)-3-(1H-indol-5-yl)-propyl]-methyl-amine], the Ki in experiment [1] was 56.2 nM; in experiment [2], 46.8 nM.
Regarding `CNCCC(c1ccc2[nH]ccc2c1)c1ccc2nccnc2c1` (stereo not drawn) [Compound 123, [3-(1H-Indol-5-yl)-3-quinoxalin-6-yl-propyl]-methyl-amine], the Ki in experiment [1] is 112 nM; in experiment [2], 47.9 nM.
As to `Cn1cc(C#N)c2cc(C(CCN)c3ccccc3)cc(F)c21` (stereo not drawn) [Compound 126, 5-(3-Amino-1-phenyl-propyl)-7-fluoro-1-methyl-1H-indole-3-carbonitrile], the Ki in experiment [1] was 398 nM; in experiment [2], 22.9 nM.
Turning to `CNCCC(c1ccccc1)c1cc(F)c2c(c1)c(C#N)cn2C` (stereo not drawn) [Compound 127, 7-Fluoro-1-methyl-5-(3-methylamino-1-phenyl-propyl)-1H-indole-3-carbonitrile], the Ki is 51.3 nM in experiment [1] and 8.32 nM in experiment [2].
On the same counts, the results for `CNCCC(c1ccccc1)c1ccc2[nH]c(C#N)cc2c1` (stereo not drawn) [Compound 128, 5-(3-Methylamino-1-phenyl-propyl)-1H-indole-2-carbonitrile] are 57.5 nM and 1.02 nM.
Take `CNCCC(c1ccc2[nH]ccc2c1)c1nc2ccccc2s1` (stereo not drawn) [Compound 140, [3-Benzothiazol-2-yl-3-(1H-indol-5-yl)-propyl]-methyl-amine]: the Ki in experiment [1] is 9.33 nM; in experiment [2], 11.2 nM.
As to `CNCCC(c1ccccc1)c1ccc2occc2c1` (stereo not drawn) [Compound 141, (3-Benzofuran-5-yl-3-phenyl-propyl)-methyl-amine], the Ki in experiment [1] was 10.7 nM; in experiment [2], 22.4 nM.
For the compound `CNCCC(c1ccccc1)c1ccc2occc2c1` (stereo not drawn) [Compound 142, (3-Benzofuran-5-yl-3-phenyl-propyl)-methyl-amine], the Ki was 10.5 nM in experiment [1] and 10.7 nM in experiment [2].
In the same order, the values of `CNCCC(c1ccccc1)c1ccc2sccc2c1` (stereo not drawn) [Compound 143, (3-Benzo[b]thiophen-5-yl-3-phenyl-propyl)-methyl-amine] are 1.55 nM and 22.4 nM.
As for “[3,3-Bis-(1H-indol-5-yl)-propyl]-methyl-amine [Compound 111]”, the “pKi NET” value in experiment [1] stood at 9.12. In addition, the “pKi SERT” value in experiment [2] was found to be 7.92.
On the same counts, the results for “[3,3-Bis-(7-fluoro-1H-indol-5-yl)-propyl]-methyl-amine [Compound 118]” are 8.87 and 7.43.
For the compound “[3-(1-Methanesulfonyl-1H-indol-5-yl)-3-phenyl-propyl]-methyl-amine hydrochloride [Compound 14]”, the “pKi NET” value in experiment [1] came to 6.57. For the same compound, the “pKi SERT” value in experiment [2] was 7.55.
On the same counts, the results for “[3-(1H-Indol-5-yl)-3-quinolin-6-yl-propyl]-methyl-amine [Compound 112]” are 7.5 and 8.67.
In the same order, the values of “[3-(1H-Indol-6-yl)-3-(2-methoxy-phenyl)-propyl]-methyl-amine [Compound 34]” are 6.59 and 7.63.
In the case of “[3-(1H-Indol-6-yl)-3-phenyl-propyl]-methyl-amine [Compound 41]”, the “pKi NET” value in experiment [1] came out at 7.63. Besides, the “pKi SERT” value in experiment [2] was 8.01.
Turning to “[3-(3,4-Dichloro-phenyl)-3-(1H-indol-5-yl)-propyl]-methyl-amine [Compound 107]”, in experiment [1], the “pKi NET” value is on record as 7.83. In experiment [2], the “pKi SERT” value came to 8.17.
In the same order, the values of “[3-(3,4-Dichloro-phenyl)-3-(7-fluoro-1H-indol-5-yl)-propyl]-methyl-amine [Compound 109]” are 7.56 and 7.9.
On the same counts, the results for “[3-(3-Chloro-1H-indazol-5-yl)-3-phenyl-propyl]-methyl-amine [Compound 57]” are 7.06 and 8.14.
Take “[3-(4-Methoxy-1H-indol-5-yl)-3-phenyl-propyl]-methyl-amine [Compound 88]”: in experiment [1], the “pKi NET” value worked out at 7.03. Besides, the “pKi SERT” value in experiment [2] amounted to 7.28.
On the same counts, the results for “[3-(5-Methoxy-1H-indol-6-yl)-3-phenyl-propyl]-methyl-amine [Compound 86]” are 7.63 and 8.01.
In the same order, the values of “[3-(7-Fluoro-1H-indol-5-yl)-3-(2-fluoro-phenyl)-propyl]-methyl-amine [Compound 95]” are 8.32 and 7.22.
For “[3-(7-Fluoro-1H-indol-5-yl)-3-(2-methoxy-phenyl)-propyl]-methyl-amine [Compound 101]”, the “pKi NET” value in experiment [1] worked out at 7.58. In addition, in experiment [2], the “pKi SERT” value worked out at 7.24.
In the same order, the values of “[3-(7-Fluoro-1H-indol-5-yl)-3-(3-fluoro-phenyl)-propyl]-methyl-amine [Compound 93]” are 8.41 and 7.76.
For “[3-(7-Fluoro-1H-indol-5-yl)-3-(3-methoxy-phenyl)-propyl]-methyl-amine [Compound 100]”, the “pKi NET” value in experiment [1] amounted to 7.95. Also, the “pKi SERT” value in experiment [2] is 7.79.
Turning to “[3-(7-Fluoro-1H-indol-5-yl)-3-(4-fluoro-phenyl)-propyl]-methyl-amine [Compound 94]”, the “pKi NET” value in experiment [1] amounted to 8.0. For the same compound, the “pKi SERT” value in experiment [2] is recorded as 7.75.
As to “[3-(7-Fluoro-1H-indol-5-yl)-3-(4-methoxy-phenyl)-propyl]-methyl-amine [Compound 98]”, the “pKi NET” value in experiment [1] came out at 8.3. Moreover, the “pKi SERT” value in experiment [2] was 7.88.
In the same order, the values of “[3-(7-Fluoro-1H-indol-5-yl)-3-naphthalen-2-yl-propyl]-methyl-amine [Compound 106]” are 7.68 and 8.28.
In the same order, the values of “[3-(7-Methoxy-1H-indol-5-yl)-3-phenyl-propyl]-methyl-amine [Compound 22]” are 8.39 and 7.66.

The record behind these values is patent EP2351737A1, “3-Amino-1-arylpropyl indoles and aza-substituted indoles” (F. Hoffmann-La Roche AG, priority 2005, dated 2007).
